What was measured:
[1] = Effect of pH value on the stability of the solution (purity); type: physicochemical; conditions: 25° C.
[2] = Effect of concentration on the stability of the solution (purity over time); conditions: in water at 25° C.
[3] = Effect of temperature (and pH) on the stability of the solution (purity); type: physicochemical; conditions: 7% solution in water

Structure (SMILES): CC(C)Cc1ccc(C(C)C(=O)OCCN2CCCCC2)cc1.Cl (racemic) [C-10, 1-piperidineethyl (R,S)-2-(p-isobutylphenyl)propionate•HCl salt]
- Purity(%) from day 0-28 ([1]; day 0, pH 1.0, 7% in 25% ethanol): 97.6 ± 0.3%
- Purity(%) from day 0-28 ([1]; day 0, pH 2.0, 7% in 25% ethanol): 97.9 ± 0.4%
- Purity(%) from day 0-28 ([1]; day 0, pH 3.0, 7% in 25% ethanol): 98.0 ± 0.3%
- Purity(%) from day 0-28 ([1]; day 0, pH 3.7, 7% in 25% ethanol): 98.2 ± 0.3%
- Purity(%) from day 0-28 ([1]; day 0, pH 4.0, 7% in 25% ethanol): 98.2 ± 0.2%
- Purity(%) from day 0-28 ([1]; day 0, pH 4.3, 7% in 25% ethanol): 98.3 ± 0.3%
- Purity(%) from day 0-28 ([1]; day 0, pH 4.6, 7% in 25% ethanol): 98.2 ± 0.4%
- Purity(%) from day 0-28 ([1]; day 0, pH 5.0, 7% in 25% ethanol): 98.2 ± 0.3%
- Purity(%) from day 0-28 ([1]; day 0, pH 6.0, 7% in 25% ethanol): 98.1 ± 0.3%
- Purity(%) from day 0-28 ([1]; day 0, pH 7.0, 7% in 25% ethanol): 97.8 ± 0.3%
- Purity(%) from day 0-28 ([1]; day 0, pH 8.0, 7% in 25% ethanol): 97.5 ± 0.5%
- Purity(%) from day 0-28 ([1]; day 28, pH 1.0, 7% in 25% ethanol): 68.1 ± 0.3%
- Purity(%) from day 0-28 ([1]; day 28, pH 2.0, 7% in 25% ethanol): 87.0 ± 0.3%
- Purity(%) from day 0-28 ([1]; day 28, pH 3.0, 7% in 25% ethanol): 87.0 ± 0.2%
- Purity(%) from day 0-28 ([1]; day 28, pH 3.7, 7% in 25% ethanol): 95.1 ± 0.3%
- Purity(%) from day 0-28 ([1]; day 28, pH 4.0, 7% in 25% ethanol): 95.8 ± 0.3%
- Purity(%) from day 0-28 ([1]; day 28, pH 4.3, 7% in 25% ethanol): 95.9 ± 0.2%
- Purity(%) from day 0-28 ([1]; day 28, pH 4.6, 7% in 25% ethanol): 95.8 ± 0.3%
- Purity(%) from day 0-28 ([1]; day 28, pH 5.0, 7% in 25% ethanol): 88.5 ± 0.4%
- Purity(%) from day 0-28 ([1]; day 28, pH 6.0, 7% in 25% ethanol): 87.9 ± 0.3%
- Purity(%) from day 0-28 ([1]; day 28, pH 7.0, 7% in 25% ethanol): 47.8 ± 0.3%
- Purity(%) from day 0-28 ([1]; day 28, pH 8.0, 7% in 25% ethanol): 34.1 ± 0.4%

Structure (SMILES): CCN(CC)CCOC(=O)C(C)c1ccc2oc(-c3ccc(Cl)cc3)nc2c1.Cl (stereo not drawn) [2-(diethylamino)ethyl 2-[(4-chlorophenyl)-5-benzoxazole]propionate•HCl]
- Purity at Day 3 ([2]; 0.01 wt %): 84.7%
- Purity at Day 7 ([2]; 0.01 wt %): 73.9%
- Purity at Day 14 ([2]; 0.01 wt %): 62.3%
- Purity at Day 21 ([2]; 0.01 wt %): 52.9%
- Purity at Day 28 ([2]; 0.01 wt %): 42.9%
- Purity at hr 0 ([2]; 0.01 wt %): 97.8%
- Purity at Day 3 ([2]; 0.1 wt %): 96.7%
- Purity at Day 7 ([2]; 0.1 wt %): 95.5%
- Purity at Day 14 ([2]; 0.1 wt %): 91.1%
- Purity at Day 21 ([2]; 0.1 wt %): 87.2%
- Purity at Day 28 ([2]; 0.1 wt %): 83.0%
- Purity at hr 0 ([2]; 0.1 wt %): 97.9%
- Purity at Day 3 ([2]; 1 wt %): 97.0%
- Purity at Day 7 ([2]; 1 wt %): 96.0%
- Purity at Day 14 ([2]; 1 wt %): 94.0%
- Purity at Day 21 ([2]; 1 wt %): 92.3%
- Purity at Day 28 ([2]; 1 wt %): 89.9%
- Purity at hr 0 ([2]; 1 wt %): 98.1%
- Purity at Day 3 ([2]; 3 wt %): 97.5%
- Purity at Day 7 ([2]; 3 wt %): 97.0%
- Purity at Day 14 ([2]; 3 wt %): 95.7%
- Purity at Day 21 ([2]; 3 wt %): 94.3%
- Purity at Day 28 ([2]; 3 wt %): 92.8%
- Purity at hr 0 ([2]; 3 wt %): 98.3%
- Purity at Day 3 ([2]; 5 wt %): 98.0%
- Purity at Day 7 ([2]; 5 wt %): 97.9%
- Purity at Day 14 ([2]; 5 wt %): 97.6%
- Purity at Day 21 ([2]; 5 wt %): 97.0%
- Purity at Day 28 ([2]; 5 wt %): 96.3%
- Purity at hr 0 ([2]; 5 wt %): 98.5%
- Purity at Day 3 ([2]; 7 wt %): 98.4%
- Purity at Day 7 ([2]; 7 wt %): 98.2%
- Purity at Day 14 ([2]; 7 wt %): 98.0%
- Purity at Day 21 ([2]; 7 wt %): 97.8%
- Purity at Day 28 ([2]; 7 wt %): 97.4%
- Purity at hr 0 ([2]; 7 wt %): 98.6%
- Purity at Day 3 ([2]; 8 wt %): 98.5%
- Purity at Day 7 ([2]; 8 wt %): 98.3%
- Purity at Day 14 ([2]; 8 wt %): 98.1%
- Purity at Day 21 ([2]; 8 wt %): 97.8%
- Purity at Day 28 ([2]; 8 wt %): 97.4%
- Purity at hr 0 ([2]; 8 wt %): 98.6%
- Purity at Day 3 ([2]; 10 wt %): 98.4%
- Purity at Day 7 ([2]; 10 wt %): 98.3%
- Purity at Day 14 ([2]; 10 wt %): 98.2%
- Purity at Day 21 ([2]; 10 wt %): 97.7%
- Purity at Day 28 ([2]; 10 wt %): 97.3%
- Purity at hr 0 ([2]; 10 wt %): 98.5%
- Purity at Day 3 ([2]; 15 wt %): 98.5%
- Purity at Day 7 ([2]; 15 wt %): 98.3%
- Purity at Day 14 ([2]; 15 wt %): 98.1%
- Purity at Day 21 ([2]; 15 wt %): 97.7%
- Purity at Day 28 ([2]; 15 wt %): 97.5%
- Purity at hr 0 ([2]; 15 wt %): 98.6%
- Purity at Day 3 ([2]; 20 wt %): 98.4%
- Purity at Day 7 ([2]; 20 wt %): 98.3%
- Purity at Day 14 ([2]; 20 wt %): 98.2%
- Purity at Day 21 ([2]; 20 wt %): 97.8%
- Purity at Day 28 ([2]; 20 wt %): 97.4%
- Purity at hr 0 ([2]; 20 wt %): 98.5%
- Purity at Day 3 ([2]; 30 wt %): 98.5%
- Purity at Day 7 ([2]; 30 wt %): 98.3%
- Purity at Day 14 ([2]; 30 wt %): 98.0%
- Purity at Day 21 ([2]; 30 wt %): 97.7%
- Purity at Day 28 ([2]; 30 wt %): 97.3%
- Purity at hr 0 ([2]; 30 wt %): 98.6%
- Purity at Day 3 ([2]; 50 wt %): 98.5%
- Purity at Day 7 ([2]; 50 wt %): 98.3%
- Purity at Day 14 ([2]; 50 wt %): 98.0%
- Purity at Day 21 ([2]; 50 wt %): 97.9%
- Purity at Day 28 ([2]; 50 wt %): 97.5%
- Purity at hr 0 ([2]; 50 wt %): 98.5%
- Stability when the concentration is 0.1% or lower [2]: not stable
- Stability of the solution at a temperature higher than 40° C. and a pH lower than 3 or greater than 6 [3]: not stable
